The subject of experiment [1] is J774.A1. Nature of the experiment: Reduction of LPS-induced nitric oxide production in mouse J774A.1 cells at 10 uM after 3 hrs relative to control. It is filed as functional. On the set-up: scale not given: the % may be the effect or the level left.
Experiment [2] has as its system J774.A1. Nature of the experiment: Reduction of LPS-induced TNFalpha production in mouse J774A.1 cells at 10 uM after 3 hrs by ELISA relative to control. Also on record: scale not given: the % may be the effect or the level left. It is filed as functional.

With `CC(=O)CCCCn1c(=O)c2c(ncn2C)n(C)c1=O` [PENTOXIFYLLINE], the Activity amounted to 33.9% with J774.A1 [1] and 7.5% in the experiment on J774.A1 [2].

The values above are taken from ChEMBL document CHEMBL1141637, “Synthesis and anti-inflammation evaluation of new C60 fulleropyrrolidines bearing biologically active xanthine” (2008).
